This is an account of results in patent US7166589B2, “Quinoline derivatives” (Hoffmann-La Roche Inc., priority 2001, dated 2007).

In the assay the target is T1, mouse NPY5-receptor (mNPY5) (Mus musculus, UniProt O70342).
T1 construct: The full-length cDNA encoding the mouse NPY5 (mNPY5) receptor was amplified from mouse brain cDNA; expressed in transfected cells
T1 sequence (O70342 1-466): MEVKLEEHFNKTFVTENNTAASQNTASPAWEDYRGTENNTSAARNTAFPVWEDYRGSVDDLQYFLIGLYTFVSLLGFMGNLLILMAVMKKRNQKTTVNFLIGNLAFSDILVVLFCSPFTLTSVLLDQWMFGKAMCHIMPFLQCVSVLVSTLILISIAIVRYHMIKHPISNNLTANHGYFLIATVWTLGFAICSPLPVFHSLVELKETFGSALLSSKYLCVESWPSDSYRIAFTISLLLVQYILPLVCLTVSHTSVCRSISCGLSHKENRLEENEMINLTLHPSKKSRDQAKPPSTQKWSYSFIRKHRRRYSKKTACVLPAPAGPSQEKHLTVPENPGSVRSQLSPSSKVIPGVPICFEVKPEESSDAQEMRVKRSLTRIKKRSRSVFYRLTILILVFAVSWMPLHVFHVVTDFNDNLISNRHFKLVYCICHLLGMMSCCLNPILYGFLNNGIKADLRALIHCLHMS
Briefly: Radioligand competition binding, [125I]PYY, membranes of HEK293 cells expressing recombinant mouse NPY5 receptor. As to conditions: 100 pM [125I]labelled peptide YY, 1 h at 22° C. From the text:
The full-length cDNA encoding the mouse NPY5 (mNPY5) receptor was amplified from mouse brain cDNA using specific primers, designed based on the published sequence, and Pfu DNA-Polymerase (Stratagene). The amplification product was subcloned into the mammalian expression vector pcDNA3 using Eco RI and XhoI restriction sites. Positive clones were sequenced and one clone, encoding the published sequence was selected for generation of stable cell clones.
Human embryonic kidney 293 (HEK293) cells were transfected with 10 μg mNPY5 DNA using the lipofectamine reagent (Gibco BRL) according to the manufacturer's instruction. Two days after transfection, geneticin selection (1 mg/ml) was initiated and several stable clones were isolated. One clone was further used for pharmacological characterization.
Human embryonic kidney 293 cells (HEK293), expressing recombinant mouse NPY5-receptor (mNPY5) were broken by three freeze/thawing cycles in hypotonic Tris buffer (5 mM, pH 7.4, 1 mM MgCl2), homogenized and centrifuged at 72,000×g for 15 min. The pellet was washed twice with 75 mM Tris buffer, pH 7.4, containing 25 mM MgCl2 and 250 mM sucrose, 0.1 mM phenylmethylsulfonylfluoride and 0.1 mM 1,10-pheneanthrolin, resuspended in the same buffer and stored in aliquots at −80° C. Protein was determined according to the method of Lowry using bovine serum albumine (BSA) as a standard.
(Loss of bound radioactivity is the signal in a displacement assay; it reports binding, not function.)

The term IC50 denotes the point on the concentration scale where inhibition reaches its midpoint.

For `Cc1cc(N2CCCC2)c2ccc(COc3ccc(C#N)cc3)cc2n1` [Example 5, 4-(2-Methyl-4-pyrrolidin-1-yl-quinolin-7-ylmethoxy)-benzonitrile], the IC50 is 22 nM.

As for `Cc1cc(N2CCCC2)c2ccc(CNc3ccc(C#N)cc3)cc2n1` [Example 13, 4-[(2-Methyl-4-pyrrolidin-1-yl-quinolin-7-ylmethyl)-amino]-benzonitrile], the IC50 was determined as 130 nM.
